Values joined by “and” are separate entries in the source; they are usually repeats but may differ in a detail not shown here. Equal entries are not always repeated. Inconclusive results and toxic doses are left out. The calls were made as follows: active = survival T/C of 150% or more; inactive = T/C below 125% in these data.
Test system: CD2F1 mice, L1210 leukemia ip, survival T/C
Test: NCI In Vivo Anticancer Drug Screen. Data for tumor model L1210 Leukemia (intraperitoneal) in CD2F1 (CDF1) mice
Conditions: endpoint: mean survival time, higher = longer survival
Outline: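 Compound-dosed mice with transplantable tumor versus matched vehicle controls; endpoint ratio T/C reported.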

[1] = dose: 100.0 mg/kg/injection, schedule: Q01DX001 (ip), vehicle: saline
[2] = dose: 200.0 mg/kg/injection, schedule: Q01DX001 (ip), vehicle: saline
[3] = dose: 400.0 mg/kg/injection, schedule: Q01DX001 (ip), vehicle: saline
[4] = dose: 100.0 mg/kg/injection, schedule: Q01DX001 (ip), vehicle: saline with Tween-80
[5] = dose: 200.0 mg/kg/injection, schedule: Q01DX001 (ip), vehicle: saline with Tween-80
[6] = dose: 100.0 mg/kg/injection, schedule: Q01DX009 (ip), vehicle: saline with Tween-80
[7] = dose: 100.0 mg/kg/injection, schedule: Q04DX003 (ip), vehicle: saline with Tween-80
[8] = dose: 200.0 mg/kg/injection, schedule: Q01DX009 (ip), vehicle: saline with Tween-80
[9] = dose: 200.0 mg/kg/injection, schedule: Q04DX003 (ip), vehicle: saline with Tween-80
[10] = dose: 400.0 mg/kg/injection, schedule: Q01DX009 (ip), vehicle: saline with Tween-80
[11] = dose: 400.0 mg/kg/injection, schedule: Q04DX003 (ip), vehicle: saline with Tween-80
[12] = dose: 400.0 mg/kg/injection, schedule: Q01DX001 (ip), vehicle: saline with Tween-80
[13] = dose: 50.0 mg/kg/injection, schedule: Q01DX009 (ip), vehicle: saline
[14] = dose: 100.0 mg/kg/injection, schedule: Q01DX009 (ip), vehicle: saline
[15] = dose: 200.0 mg/kg/injection, schedule: Q01DX009 (ip), vehicle: saline
[16] = dose: 50.0 mg/kg/injection, schedule: Q04DX003 (ip), vehicle: saline with Tween-80
[17] = dose: 75.0 mg/kg/injection, schedule: Q01DX001 (ip), vehicle: saline
[18] = dose: 150.0 mg/kg/injection, schedule: Q01DX001 (ip), vehicle: saline
[19] = dose: 300.0 mg/kg/injection, schedule: Q01DX001 (ip), vehicle: saline

Measured: T/C

CCCCCCCCCCCCCCCCCCn1cnc2c(Cl)ncnc21
inactive: dose: 12.5 mg/kg/injection, schedule: Q01DX005 (ip), vehicle: other 87 % of control | dose: 25.0 mg/kg/injection, schedule: Q01DX005 (ip), vehicle: other 91 % of control | dose: 50.0 mg/kg/injection, schedule: Q01DX005 (ip), vehicle: other 92 % of control | dose: 200.0 mg/kg/injection, schedule: Q01DX005 (ip), vehicle: other 86 % of control

COc1ccc2c(c1)C1(C)CCC(=O)C(C)=C1CC2 (configuration not stated)
inactive: [1] 105 % of control | [2] 98 % of control | [3] 98 % of control

Nc1nc(N)c2ncn(C3CC(CO)C(O)C3O)c2n1 (configuration not stated)
inactive: dose: 50.0 mg/kg/injection, schedule: Q01DX009 (ip), vehicle: saline with Tween-80 89 % of control

O=C(CCc1ccc(S(=O)(=O)F)cc1)Nc1cccc(-c2nc3nc[nH]c(=O)c3[nH]2)c1
inactive: dose: 50.0 mg/kg/injection, schedule: Q01DX001 (ip), vehicle: saline with Tween-80 94 % of control | [4] 94 % of control | [5] 90 % of control

CC(=O)C(c1ccccc1)C(c1ccccc1)P(=O)(c1ccccc1)c1ccccc1 (configuration not stated)
inactive: [6] 87 % of control | [7] 97 % of control | [8] 90 % of control | [9] 94 % of control | [10] 96 % of control | [11] 87 % of control

O=S(=O)(O)c1cccnc1
inactive: dose: 100.0 mg/kg/injection, schedule: Q04DX002 (ip), vehicle: saline 94 % of control | dose: 200.0 mg/kg/injection, schedule: Q04DX002 (ip), vehicle: saline 94 % of control | dose: 400.0 mg/kg/injection, schedule: Q04DX002 (ip), vehicle: saline 97 % of control

CC1(C)C=CC(C)(C)c2c(NS(=O)(=O)c3ccccc3)ccc(NS(=O)(=O)c3ccccc3)c21
inactive: [7] 98 % of control | [11] 96 % of control

c1ccc2cc(OCCOCCOc3ccc4ccccc4c3)ccc2c1
inactive: [4] 103 % of control | [5] 100 % of control | [12] 97 % of control

SC1(SC2(S)CCCCC2)CCCCC1
inactive: [6] 102 % of control | [8] 112 % of control | [10] 103 % of control

COC(=O)c1ccc(NCC(=N)N)cc1
inactive: [13] 100 % of control | [14] 122 % of control | [15] 100 % of control

COc1ccc(N=NNc2ccc(OC)cc2)cc1
inactive: dose: 6.25 mg/kg/injection, schedule: Q01DX009 (ip), vehicle: saline with Tween-80 100 % of control | dose: 12.5 mg/kg/injection, schedule: Q01DX009 (ip), vehicle: saline with Tween-80 96 % of control | dose: 25.0 mg/kg/injection, schedule: Q01DX009 (ip), vehicle: saline with Tween-80 102 % of control

N#C/C(=C\c1cc(Br)cc(Br)c1O)c1ccc([N+](=O)[O-])cc1
inactive: [6] 103 % of control | [8] 96 % of control | [10] 94 % of control

OCC1CC2c3[nH]c4ccccc4c3CCN2C1 (configuration not stated)
inactive: dose: 20.0 mg/kg/injection, schedule: Q01DX001 (ip), vehicle: saline with Tween-80 95 % of control | dose: 40.0 mg/kg/injection, schedule: Q01DX001 (ip), vehicle: saline with Tween-80 90 % of control | dose: 80.0 mg/kg/injection, schedule: Q01DX001 (ip), vehicle: saline with Tween-80 93 % of control

O=Nc1ccc(O)cc1
inactive: [16] 100 % of control | [7] 105 % of control and 107 % of control | [9] 95 % of control and 111 % of control

[N-]=[N+]=NC1=C(c2ccccc2)C(=O)C=C(c2ccccc2)C1=O
inactive: dose: 25.0 mg/kg/injection, schedule: Q04DX003 (ip), vehicle: saline with Tween-80 94 % of control | [16] 94 % of control | [7] 101 % of control and 102 % of control | [11] 101 % of control

CC(=O)OCC1OC(OC2=C(CC=C(C)C)C(=O)c3ccccc3C2=O)C(OC(C)=O)C(OC(C)=O)C1OC(C)=O (configuration not stated)
inactive: dose: 6.25 mg/kg/injection, schedule: Q01DX009 (ip), vehicle: Klucel (hydroxypropylcellulose) (HPC) 108 % of control | dose: 12.5 mg/kg/injection, schedule: Q01DX009 (ip), vehicle: Klucel (hydroxypropylcellulose) (HPC) 101 % of control and 108 % of control | dose: 25.0 mg/kg/injection, schedule: Q01DX009 (ip), vehicle: Klucel (hydroxypropylcellulose) (HPC) 101 % of control and 108 % of control | dose: 50.0 mg/kg/injection, schedule: Q01DX009 (ip), vehicle: Klucel (hydroxypropylcellulose) (HPC) 101 % of control | dose: 100.0 mg/kg/injection, schedule: Q01DX009 (ip), vehicle: Klucel (hydroxypropylcellulose) (HPC) 92 % of control and 102 % of control | dose: 200.0 mg/kg/injection, schedule: Q01DX009 (ip), vehicle: Klucel (hydroxypropylcellulose) (HPC) 89 % of control and 96 % of control

O=C(N/N=C\C(O)C(O)C(O)C(O)CO)c1ccccc1 (configuration not stated)
inactive: [17] 100 % of control | [18] 104 % of control | [19] 106 % of control

ClCC(Cl)CN(Cc1ccccc1)Cc1ccccc1 (configuration not stated)
inactive: [4] 102 % of control | [6] 102 % of control | [5] 93 % of control | [8] 104 % of control | [12] 98 % of control

CCC(C)CC(C)C1=NC(C)(C)CC(C)O1 (configuration not stated)
inactive: [4] 104 % of control | [5] 90 % of control

Nc1ccccc1SSc1ccccc1N
inactive: [7] 98 % of control | [9] 90 % of control

O=c1[nH]c(=O)n(C2CC(O)C(CO)O2)cc1C1SCCS1 (configuration not stated)
inactive: dose: 3.8 mg/kg/injection, schedule: Q01DX005 (ip), vehicle: water 102 % of control | dose: 7.5 mg/kg/injection, schedule: Q01DX005 (ip), vehicle: water 98 % of control | dose: 15.0 mg/kg/injection, schedule: Q01DX005 (ip), vehicle: water 95 % of control | dose: 30.0 mg/kg/injection, schedule: Q01DX005 (ip), vehicle: water 87 % of control | dose: 60.0 mg/kg/injection, schedule: Q01DX005 (ip), vehicle: water 106 % of control

CSCC(N)C(=O)O (configuration not stated)
inactive: [14] 103 % of control | [15] 103 % of control | dose: 400.0 mg/kg/injection, schedule: Q01DX009 (ip), vehicle: saline 97 % of control

O=C1OCC/C1=C/c1cccc(O)c1
inactive: dose: 6.25 mg/kg/injection, schedule: Q04DX002 (ip), vehicle: Klucel (hydroxypropylcellulose) (HPC) 103 % of control | dose: 25.0 mg/kg/injection, schedule: Q04DX002 (ip), vehicle: Klucel (hydroxypropylcellulose) (HPC) 107 % of control

ClCC(CCl)c1nncc2ccccc12
inactive: [1] 94 % of control | [2] 97 % of control | [3] 93 % of control

CCNC(=O)c1ccccc1N=NN(C)C
inactive: dose: 18.7 mg/kg/injection, schedule: Q01DX009 (ip), vehicle: Klucel (hydroxypropylcellulose) (HPC) 105 % of control | dose: 18.75 mg/kg/injection, schedule: Q01DX009 (ip), vehicle: Klucel (hydroxypropylcellulose) (HPC) 92 % of control and 97 % of control

OC1CCC2=C(C1)C1CCC2C1 (configuration not stated)
inactive: dose: 12.5 mg/kg/injection, schedule: Q01DX009 (ip), vehicle: saline 98 % of control | dose: 25.0 mg/kg/injection, schedule: Q01DX009 (ip), vehicle: saline 103 % of control | [13] 97 % of control

Cc1cccc(C)c1NC1=CC(=O)C(=O)c2ccccc21
inactive: [17] 95 % of control | [18] 89 % of control | [19] 97 % of control

O=C(OCC1OC(n2nc(N3CCOCC3)c(=O)[nH]c2=O)C(OC(=O)c2ccccc2)C1OC(=O)c1ccccc1)c1ccccc1 (configuration not stated)
inactive: dose: 12.5 mg/kg/injection, schedule: Q01DX005 (ip), vehicle: distilled water + Tween-80 98 % of control | dose: 25.0 mg/kg/injection, schedule: Q01DX005 (ip), vehicle: distilled water + Tween-80 103 % of control | dose: 50.0 mg/kg/injection, schedule: Q01DX005 (ip), vehicle: distilled water + Tween-80 92 % of control

NS(=O)(=O)c1cc([N+](=O)[O-])ccc1Cl
inactive: [6] 91 % of control | [8] 98 % of control

O=c1[nH]c2ccc(Cl)cc2c2ccccc12
inactive: dose: 100.0 mg/kg/injection, schedule: Q01DX001 (ip), vehicle: carboxymethylcellulose (CMC) 91 % of control | dose: 200.0 mg/kg/injection, schedule: Q01DX001 (ip), vehicle: carboxymethylcellulose (CMC) 97 % of control | dose: 400.0 mg/kg/injection, schedule: Q01DX001 (ip), vehicle: carboxymethylcellulose (CMC) 105 % of control

CC(C)CC(NC(=O)c1ccccc1)C(=O)O (configuration not stated)
inactive: [7] 95 % of control | [9] 95 % of control | [11] 101 % of control
